Assay results as given in patent US12281122B1, “PI3K inhibitors” (Cogent Biosciences, Inc., priority 2023, dated 2025).

Key:
PI3Kα = PI3Kα (Homo sapiens, UniProt P42336); assay: PI3Kα enzyme assay (Transcreener ADP2 TR-FRET Red Assay); assay type: biochemical; conditions: purified recombinant full-length protein; 2 hours pre-incubation with compound; read-out: PI3Kα WT IC50
Description: (§1) Activity against PI3Kα and PI3Kα H1047R enzymes were determined in biochemical assays using purified recombinant full-length proteins with the Transcreener ADP^2 TR-FRET Red Assay from Bellbrook Labs. (Catalogue number 3011-10K). Test compounds were dissolved in DMSO and were tested in 11 point 1:3 serial dilutions, typical final concentration range from 50,000 nM to 0.85 nM. Enzymes were pre-incubated with compounds for 2 hours at room temperature prior to initiating the reactions. Assays were initiated with a 2×ATP/PI(4,5)P2 diC8 substrate mixture. After 60 minutes at room temperature, the reactions were quenched with detection reagent and incubated for an additional 60 minutes at room temperature. The plates were read using a multimode reader and the emission ratio of 665 nm to 615 nm was determined. This ratio was converted to percent of control (POC). [1-(high control-sample signal)/(high control-low control)]*100. Wells without compound were used to determine high control values and wells without enzyme were used to determine low control values. The POC values were fit using a four-parameter logistic model and the value where the fit curve was equal to 50 POC was reported as the IC50 using the Signals VitroVivo software package (PerkinElmer). Final assay conditions were: 40 mM HEPES pH 7.5, 20 mM NaCl, 25 mM MgCl2, 0.01% Triton X-100. The enzyme source, catalogue number, final enzyme concentration, and final ATP and PI(4,5)P2 diC8 concentration can be found in the table E10 below.

PI3Kα H1047R = PI3Kα H1047R (Homo sapiens, UniProt P42336, H1047R); assay: PI3Kα H1047R enzyme assay (Transcreener ADP2 TR-FRET Red Assay); assay type: biochemical; conditions: purified recombinant full-length protein; 2 hours pre-incubation with compound
Description: as §1

[1] = tested on: T47D (PI3Kα-H1047R) cell line; assay: HTRF phospho-AKT(S473) cell assay in T47D cells; assay type: cell-based, human; conditions: Homo sapiens; T47D (PI3Kα-H1047R) cells, HTRF phospho-AKT(S473), 2 hours compound incubation
Procedure, shortened: (§2)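 Cells plated overnight (T47D in RPMI/10% FBS/0.2 units/mL insulin; SKBR3 in McCoy's 5A/10% FBS), then given 12-point 1:3 compound series (top 5 μM T47D, 10 μM SKBR3; ≤0.5% DMSO) for 2 h at 37° C. SKBR3 stimulated with 70 ng/ml PDGF-BB for final 15 min. Lysate pAKT(S473) by HTRF; IC50 calculated.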

[2] = tested on: SKBR3 (PI3Kα-Wild Type) cell line; assay: HTRF phospho-AKT(S473) cell assay in SKBR3 cells; assay type: cell-based, human; conditions: Homo sapiens, SK-BR-3; SKBR3 (PI3Kα-Wild Type) cells, HTRF phospho-AKT(S473), 2 hours compound incubation, PDGF-BB stimulated
Procedure, shortened: as §2

Sequence of PI3Kα H1047R (P42336 whole entry H1047R): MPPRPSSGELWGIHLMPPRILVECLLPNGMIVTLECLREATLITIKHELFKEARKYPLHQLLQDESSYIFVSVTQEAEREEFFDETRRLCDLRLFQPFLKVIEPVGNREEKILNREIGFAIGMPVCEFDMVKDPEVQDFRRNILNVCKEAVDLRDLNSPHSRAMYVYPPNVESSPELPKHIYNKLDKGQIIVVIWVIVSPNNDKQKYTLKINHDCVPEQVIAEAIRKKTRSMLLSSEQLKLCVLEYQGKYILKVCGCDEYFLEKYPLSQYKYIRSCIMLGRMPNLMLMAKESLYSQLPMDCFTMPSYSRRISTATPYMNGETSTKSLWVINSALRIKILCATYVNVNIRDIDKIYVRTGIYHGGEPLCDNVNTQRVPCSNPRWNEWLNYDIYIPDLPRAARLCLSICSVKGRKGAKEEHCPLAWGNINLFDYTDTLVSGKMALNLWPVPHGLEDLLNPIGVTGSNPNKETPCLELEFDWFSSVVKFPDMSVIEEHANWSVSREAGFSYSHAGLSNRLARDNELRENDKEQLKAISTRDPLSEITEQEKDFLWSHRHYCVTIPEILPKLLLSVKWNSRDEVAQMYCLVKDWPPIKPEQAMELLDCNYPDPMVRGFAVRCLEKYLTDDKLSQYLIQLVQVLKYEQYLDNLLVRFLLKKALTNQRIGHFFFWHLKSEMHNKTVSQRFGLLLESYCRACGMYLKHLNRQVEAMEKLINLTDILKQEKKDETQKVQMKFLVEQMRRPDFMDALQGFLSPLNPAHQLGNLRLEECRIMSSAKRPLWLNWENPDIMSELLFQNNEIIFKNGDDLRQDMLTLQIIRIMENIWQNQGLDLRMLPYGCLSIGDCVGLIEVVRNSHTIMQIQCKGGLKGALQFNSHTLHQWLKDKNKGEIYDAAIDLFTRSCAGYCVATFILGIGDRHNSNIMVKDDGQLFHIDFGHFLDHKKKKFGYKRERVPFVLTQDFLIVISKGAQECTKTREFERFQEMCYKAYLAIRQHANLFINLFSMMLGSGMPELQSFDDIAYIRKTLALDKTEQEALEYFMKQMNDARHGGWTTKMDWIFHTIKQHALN
Sequence of PI3Kα H1047R (P27986 2-724 partner): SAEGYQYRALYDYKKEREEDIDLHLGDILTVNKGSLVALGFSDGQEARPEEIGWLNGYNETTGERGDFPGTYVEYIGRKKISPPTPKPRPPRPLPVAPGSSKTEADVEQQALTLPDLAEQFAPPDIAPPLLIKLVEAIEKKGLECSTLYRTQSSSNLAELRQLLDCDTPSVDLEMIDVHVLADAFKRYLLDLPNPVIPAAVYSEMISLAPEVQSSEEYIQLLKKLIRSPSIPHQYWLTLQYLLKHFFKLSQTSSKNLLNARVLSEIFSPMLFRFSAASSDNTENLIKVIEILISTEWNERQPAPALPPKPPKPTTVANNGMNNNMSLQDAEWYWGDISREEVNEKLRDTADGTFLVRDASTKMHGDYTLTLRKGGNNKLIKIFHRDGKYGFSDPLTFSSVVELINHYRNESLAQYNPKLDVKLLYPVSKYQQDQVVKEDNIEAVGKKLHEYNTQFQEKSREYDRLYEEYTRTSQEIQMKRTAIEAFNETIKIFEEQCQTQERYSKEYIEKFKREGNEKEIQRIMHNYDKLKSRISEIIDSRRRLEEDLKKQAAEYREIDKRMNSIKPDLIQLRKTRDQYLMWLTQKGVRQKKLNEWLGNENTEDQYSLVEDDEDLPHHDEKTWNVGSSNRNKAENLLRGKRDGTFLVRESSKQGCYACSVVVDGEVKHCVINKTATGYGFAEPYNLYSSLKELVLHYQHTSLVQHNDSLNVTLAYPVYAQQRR
Sequence of PI3Kα (P42336 whole entry): as the sequence (P42336 whole entry H1047R) above, with R1047H counted along it
Sequence of PI3Kα (P27986 2-724 partner): as the sequence (P27986 2-724 partner) above

| SMILES | IC50 (PI3Kα) [nM] | IC50 (PI3Kα H1047R) [nM] | IC50 [1] [nM] | IC50 [2] [nM] |
| --- | --- | --- | --- | --- |
| C[C@@H](Nc1ccc(Cl)[nH]c1=O)c1cc(F)cc2c(=O)n(C)c(N3CCOCC3)nc12 [Compound 101, (R)-8-(1-((6-chloro-2-oxo-1,2-dihydropyridin-3-yl)amino)ethyl)-6-fluoro-3-methyl-2-morpholinoquinazolin-4(3H)-one] | ≥ 1000 | 100 to 250 | 1000 to 5000 | ≥ 5000 |
| Cc1cc([C@@H](C)Nc2cc(C)c(Cl)nc2C(=O)NS(C)(=O)=O)c2nc(N3Cc4ccc(F)cc4C3)n(C)c(=O)c2c1 [Compound 35, (R)-6-chloro-3-((1-(2-(5-fluoroisoindolin-2-yl)-3,6-dimethyl-4-oxo-3,4-dihydroquinazolin-8-yl)ethyl)amino)-5-methyl-N-(methylsulfonyl) picolinamide] | ≥ 1000 | ≥ 1000 | 1000 to 5000 | ≥ 5000 |
| Cc1cc([C@@H](C)Nc2ccc(Cl)nc2C(=O)NS(C)(=O)=O)c2nc(N3C[C@H](C)O[C@@H](C)C3)n(C)c(=O)c2c1 [Compound 25, 6-chloro-3-(((R)-1-(2-((2S,6S)-2,6-dimethylmorpholino)-3,6-dimethyl-4-oxo-3,4-dihydroquinazolin-8-yl)ethyl)amino)-N-(methylsulfonyl) picolinamide] | ≥ 1000 | ≥ 1000 | 250 to 500 | 1000 to 5000 |
| Cc1cc([C@@H](C)Nc2ccc(Cl)nc2C(=O)NS(C)(=O)=O)c2nc(N3C[C@@H]4C[C@H]3CO4)n(C)c(=O)c2c1 [Compound 27, 3-(((R)-1-(2-((1S,4S)-2-oxa-5-azabicyclo[2.2.1]heptan-5-yl)-3,6-dimethyl-4-oxo-3,4-dihydroquinazolin-8-yl)ethyl)amino)-6-chloro-N-(methylsulfonyl) picolinamide] | ≥ 1000 | 500 to 1000 | < 250 | 1000 to 5000 |
| C[C@@H](Nc1ccc(Cl)nc1C(=O)NS(C)(=O)=O)c1cc(F)cc2c(=O)n(C)c(N3CCc4c(cnn4C)C3)nc12 [Compound 30, (R)-6-chloro-3-((1-(6-fluoro-3-methyl-2-(1-methyl-1,4,6,7-tetrahydro-5H-pyrazolo[4,3-c]pyridin-5-yl)-4-oxo-3,4-dihydroquinazolin-8-yl)ethyl)amino)-N-(methylsulfonyl) picolinamide] | ≥ 1000 | 100 to 250 | < 250 | 1000 to 5000 |
| Cc1cc([C@@H](C)Nc2ccc(Cl)nc2C(=O)NS(C)(=O)=O)c2nc(NCC(F)(F)F)n(C)c(=O)c2c1 [Compound 34, (R)-6-chloro-3-((1-(3,6-dimethyl-4-oxo-2-((2,2,2-trifluoroethyl)amino)-3,4-dihydroquinazolin-8-yl)ethyl)amino)-N-(methylsulfonyl) picolinamide] | ≥ 1000 | 500 to 1000 | 250 to 500 | 1000 to 5000 |
| Cc1cc([C@@H](C)Nc2ccc(Cl)nc2C(=O)NS(C)(=O)=O)c2nc(NCc3ccc(F)cc3C)n(C)c(=O)c2c1 [Compound 17, (R)-6-chloro-3-((1-(2-((4-fluoro-2-methylbenzyl)amino)-3,6-dimethyl-4-oxo-3,4-dihydroquinazolin-8-yl)ethyl)amino)-N-(methylsulfonyl) picolinamide] | ≥ 1000 | ≥ 1000 | 1000 to 5000 | ≥ 5000 |
| Cc1cc([C@@H](C)Nc2ccc(Cl)nc2C(=O)NS(C)(=O)=O)c2nc(N(C)C)n(C)c(=O)c2c1 [Compound 40, (R)-6-chloro-3-((1-(2-(dimethylamino)-3,6-dimethyl-4-oxo-3,4-dihydroquinazolin-8-yl)ethyl)amino)-N-(methylsulfonyl) picolinamide] | ≥ 1000 | ≥ 1000 | 250 to 500 | 1000 to 5000 |
| Cc1cc([C@@H](C)Nc2ccc(Cl)nc2C(=O)NS(C)(=O)=O)c2nc(-c3cccnc3C)n(C)c(=O)c2c1 [Compound 85, (R)-6-chloro-3-((1-(3,6-dimethyl-2-(2-methylpyridin-3-yl)-4-oxo-3,4-dihydroquinazolin-8-yl)ethyl)amino)-N-(methylsulfonyl) picolinamide] | ≥ 1000 | ≥ 1000 | 1000 to 5000 | ≥ 5000 |

The next lines start with the values.

| IC50 (PI3Kα) [nM] | IC50 (PI3Kα H1047R) [nM] | IC50 [1] [nM] | IC50 [2] [nM] | SMILES |
| --- | --- | --- | --- | --- |
| ≥ 1000 | < 100 | < 250 | 1000 to 5000 | Cc1cc([C@@H](C)Nc2ccc(Cl)nc2C(=O)NS(C)(=O)=O)c2nc(C3CCCCC3)n(C)c(=O)c2c1 [Compound 92, (R)-6-chloro-3-((1-(2-cyclohexyl-3,6-dimethyl-4-oxo-3,4-dihydroquinazolin-8-yl)ethyl)amino)-N-(methylsulfonyl) picolinamide] |
| ≥ 1000 | ≥ 1000 | 250 to 500 | 1000 to 5000 | Cc1cc([C@@H](C)Nc2ccc(Cl)nc2C(=O)NS(C)(=O)=O)c2nc(OCc3cccnc3)n(C)c(=O)c2c1 [Compound 56, (R)-6-chloro-3-((1-(3,6-dimethyl-4-oxo-2-(pyridin-3-ylmethoxy)-3,4-dihydroquinazolin-8-yl)ethyl)amino)-N-(methylsulfonyl) picolinamide] |
| ≥ 1000 | 250 to 500 | 1000 to 5000 | 1000 to 5000 | Cc1cc([C@@H](C)Nc2ccc(Cl)nc2C(=O)NS(C)(=O)=O)c2nc(OCc3ccccc3)n(C)c(=O)c2c1 [Compound 50, (R)-3-((1-(2-(benzyloxy)-3,6-dimethyl-4-oxo-3,4-dihydroquinazolin-8-yl)ethyl)amino)-6-chloro-N-(methylsulfonyl) picolinamide] |
| ≥ 1000 | < 100 | < 250 | 500 to 1000 | Cc1cc([C@@H](C)Nc2ccc(Cl)nc2C(=O)NS(C)(=O)=O)c2nc(OCC3CC3)n(C)c(=O)c2c1 [Compound 51, (R)-6-chloro-3-((1-(2-(cyclopropylmethoxy)-3,6-dimethyl-4-oxo-3,4-dihydroquinazolin-8-yl)ethyl)amino)-N-(methylsulfonyl) picolinamide] |
| ≥ 1000 | ≥ 1000 | 250 to 500 | 1000 to 5000 | Cc1cc([C@@H](C)Nc2ccc(Cl)nc2C(=O)NS(C)(=O)=O)c2nc(N3CCO[C@@H](C)C3)n(C)c(=O)c2c1 [Compound 36, 6-chloro-3-(((R)-1-(3,6-dimethyl-2-((S)-2-methylmorpholino)-4-oxo-3,4-dihydroquinazolin-8-yl)ethyl)amino)-N-(methylsulfonyl) picolinamide] |
| ≥ 1000 | ≥ 1000 | 500 to 1000 | 1000 to 5000 | COc1ccc(N[C@H](C)c2cc(C)cc3c(=O)n(C)c(N4Cc5ccc(F)cc5C4)nc23)c(C(=O)NS(C)(=O)=O)n1 [Compound 65, (R)-3-((1-(2-(5-fluoroisoindolin-2-yl)-3,6-dimethyl-4-oxo-3,4-dihydro-quinazolin-8-yl)ethyl)amino)-6-methoxy-N-(methylsulfonyl) picolinamide] |
| ≥ 1000 | ≥ 1000 | 500 to 1000 | ≥ 5000 | Cc1cc([C@@H](C)Nc2ccc(Cl)nc2C(=O)NS(C)(=O)=O)c2nc(N3CCc4ccccc4[C@H]3C)n(C)c(=O)c2c1 (mixture of isomers) [Compound 19, 6-chloro-3-(((R)-1-(3,6-dimethyl-2-((R)-1-methyl-3,4-dihydroisoquinolin-2(1H)-yl)-4-oxo-3,4-dihydroquinazolin-8-yl)ethyl)amino)-N-(methylsulfonyl) picolinamide AND 6-chloro-3-(((R)-1-(3,6-dimethyl-2-((S)-1-methyl-3,4-dihydroisoquinolin-2(1H)-yl)-4-oxo-3,4-dihydroquinazolin-8-yl)ethyl)amino)-N-(methylsulfonyl) picolinamide] |
| ≥ 1000 | 500 to 1000 | 250 to 500 | 1000 to 5000 | Cc1cc([C@@H](C)Nc2ccc(Cl)nc2C(=O)NS(C)(=O)=O)c2nc(N3CCC(F)(F)C[C@H]3C)n(C)c(=O)c2c1 (single isomer, unassigned) [Compound 41, 6-chloro-3-(((R)-1-(2-((R*)-4,4-difluoro-2-methylpiperidin-1-yl)-3,6-dimethyl-4-oxo-3,4-dihydroquinazolin-8-yl)ethyl)amino)-N-(methylsulfonyl) picolinamide] |
